Experimental data published in patent US20260217701A1, “SELECTIVE BET INHIBITORS AND USES THEREOF” (Tay Therapeutics Limited, priority 2022, published 2026).
Values joined by “and” are separate entries in the source; they are usually repeats but may differ in a detail not shown here. Equal values may be shown once.

Tested on: collagen-induced arthritis
Experiment: Collagen-induced arthritis (CIA) model: clinical scores and paw volume
Assay type: in vivo, Lewis rats
Settings: for Percent Inhibition in clinical score (Mean ± SD) / Percent Inhibition in paw volume (Mean ± SD): CIA rats; for Overall Clinical Score: individual animals 1-8
[1] = Day 0, L paw, group 5 CIA + Compound A 1 mg/kg
[2] = Day 0, L paw, group 6 CIA + Compound A 3 mg/kg
[3] = Day 0, L paw, group 7 CIA + Compound A 10 mg/kg
[4] = Day 0, R paw, group 5 CIA + Compound A 1 mg/kg
[5] = Day 0, R paw, group 6 CIA + Compound A 3 mg/kg
[6] = Day 0, R paw, group 7 CIA + Compound A 10 mg/kg
[7] = Day 0, CIA + Compound A 1 mg/kg
[8] = Day 0, CIA + Compound A 3 mg/kg
[9] = Day 0, CIA + Compound A 10 mg/kg
[10] = Day 6, L paw, group 5 CIA + Compound A 1 mg/kg
[11] = Day 6, L paw, group 6 CIA + Compound A 3 mg/kg
[12] = Day 6, L paw, group 7 CIA + Compound A 10 mg/kg
[13] = Day 6, R paw, group 5 CIA + Compound A 1 mg/kg
[14] = Day 6, R paw, group 6 CIA + Compound A 3 mg/kg
[15] = Day 6, R paw, group 7 CIA + Compound A 10 mg/kg
[16] = Day 6, CIA + Compound A 1 mg/kg
[17] = Day 6, CIA + Compound A 3 mg/kg
[18] = Day 6, CIA + Compound A 10 mg/kg
[19] = Day 12, L paw, group 5 CIA + Compound A 1 mg/kg
[20] = Day 12, L paw, group 6 CIA + Compound A 3 mg/kg
[21] = Day 12, L paw, group 7 CIA + Compound A 10 mg/kg
[22] = Day 12, R paw, group 5 CIA + Compound A 1 mg/kg
[23] = Day 12, R paw, group 6 CIA + Compound A 3 mg/kg
[24] = Day 12, R paw, group 7 CIA + Compound A 10 mg/kg
[25] = Day 12, CIA + Compound A 1 mg/kg
[26] = Day 12, CIA + Compound A 3 mg/kg

Cn1cc(-c2ccccc2)c(-c2cn(C)c(=O)c3[nH]c(-c4cnn(C(F)(F)F)c4)cc23)cc1=O [Compound A, 6-methyl-4-(1-methyl-2-oxo-5-phenyl-1,2-dihydropyridin-4-yl)-2-(1-(trifluoromethyl)-1H-pyrazol-4-yl)-1,6-dihydro-7H-pyrrolo[2,3-c]pyridin-7-one]
Reduction in clinical score compared to CIA+placebo (10 mg/kg PO QD, Day 21): > 70%
Reduction in paw volume compared to CIA+placebo (10 mg/kg PO QD, Day 21): > 70%
Anti-inflammatory activity versus CIA placebo and CIA+10 mg/kg GSK620 (1, 3, and 10 mg/kg): superior (statistically)
Percent Inhibition in clinical score (Mean ± SD) (1 mg/kg): 60 ± 21%
Percent Inhibition in paw volume (Mean ± SD) (1 mg/kg): 58 ± 23%
Percent Inhibition in clinical score (Mean ± SD) (3 mg/kg): 70 ± 8%
Percent Inhibition in paw volume (Mean ± SD) (3 mg/kg): 75 ± 12%
Average animal paw volume [1]: 1.33 mL
Average animal paw volume percent change (%) [1]: 0.00%
Average animal paw volume [2]: 1.32 mL
Average animal paw volume percent change (%) [2]: 0.00%
Average animal paw volume [3]: 1.32 mL
Average animal paw volume percent change (%) [3]: 0.00%
Average animal paw volume [4]: 1.33 mL
Average animal paw volume percent change (%) [4]: 0.00%
Average animal paw volume [5]: 1.31 mL
Average animal paw volume percent change (%) [5]: 0.00%
Average animal paw volume [6]: 1.31 mL
Average animal paw volume percent change (%) [6]: 0.00%
Average detailed clinical score, left forelimb [7]: 0.00
Average detailed clinical score, left hind limb [7]: 0.00
Average detailed clinical score, right forelimb [7]: 0.00
Average detailed clinical score, right hind limb [7]: 0.00
Average detailed clinical score, score [7]: 0.00
Average overall clinical score [7]: 0
Overall Clinical Score [7]: 0
Average detailed clinical score, left forelimb [8]: 0.00
Average detailed clinical score, left hind limb [8]: 0.00
Average detailed clinical score, right forelimb [8]: 0.00
Average detailed clinical score, right hind limb [8]: 0.00
Average detailed clinical score, score [8]: 0.00
Average overall clinical score [8]: 0
Overall Clinical Score [8]: 0
Average detailed clinical score, left forelimb [9]: 0.00
Average detailed clinical score, left hind limb [9]: 0.00
Average detailed clinical score, right forelimb [9]: 0.00
Average detailed clinical score, right hind limb [9]: 0.00
Average detailed clinical score, score [9]: 0.00
Average overall clinical score [9]: 0
Average animal paw volume [10]: 1.35 mL
Average animal paw volume percent change (%) [10]: 1.60%
Average animal paw volume [11]: 1.34 mL
Average animal paw volume percent change (%) [11]: 1.44%
Average animal paw volume [12]: 1.34 mL
Average animal paw volume percent change (%) [12]: 1.64%
Average animal paw volume [13]: 1.35 mL
Average animal paw volume percent change (%) [13]: 1.41%
Average animal paw volume [14]: 1.34 mL
Average animal paw volume percent change (%) [14]: 1.63%
Average animal paw volume [15]: 1.33 mL
Average animal paw volume percent change (%) [15]: 1.59%
Average detailed clinical score, left forelimb [16]: 0.00
Average detailed clinical score, left hind limb [16]: 0.00
Average detailed clinical score, right forelimb [16]: 0.00
Average detailed clinical score, right hind limb [16]: 0.00
Average detailed clinical score, score [16]: 0.00
Average overall clinical score [16]: 0
Overall Clinical Score [16]: 0
Average detailed clinical score, left forelimb [17]: 0.00
Average detailed clinical score, left hind limb [17]: 0.00
Average detailed clinical score, right forelimb [17]: 0.00
Average detailed clinical score, right hind limb [17]: 0.00
Average detailed clinical score, score [17]: 0.00
Average overall clinical score [17]: 0
Overall Clinical Score [17]: 0
Average detailed clinical score, left forelimb [18]: 0.00
Average detailed clinical score, left hind limb [18]: 0.00
Average detailed clinical score, right forelimb [18]: 0.00
Average detailed clinical score, right hind limb [18]: 0.00
Average detailed clinical score, score [18]: 0.00
Average overall clinical score [18]: 0
Average animal paw volume [19]: 1.38 mL
Average animal paw volume percent change (%) [19]: 4.24%
Average animal paw volume [20]: 1.37 mL
Average animal paw volume percent change (%) [20]: 4.35%
Average animal paw volume [21]: 1.36 mL
Average animal paw volume percent change (%) [21]: 3.32%
Average animal paw volume [22]: 1.42 mL
Average animal paw volume percent change (%) [22]: 6.44%
Average animal paw volume [23]: 1.36 mL
Average animal paw volume percent change (%) [23]: 3.50%
Average animal paw volume [24]: 1.37 mL
Average animal paw volume percent change (%) [24]: 4.40%
Average detailed clinical score, left forelimb [25]: 0.00
Average detailed clinical score, left hind limb [25]: 0.13
Average detailed clinical score, right forelimb [25]: 0.25
Average detailed clinical score, right hind limb [25]: 0.00
Average detailed clinical score, score [25]: 0.38
Average overall clinical score [25]: 0
Overall Clinical Score (Day 12, CIA + Compound A 1 mg/kg, 1 mg/kg): 0 (7×) and 1
Average detailed clinical score, left forelimb [26]: 0.00
Average detailed clinical score, left hind limb [26]: 0.25
Average detailed clinical score, right forelimb [26]: 0.00
Average detailed clinical score, right hind limb [26]: 0.25
Average detailed clinical score, score [26]: 0.50
Average overall clinical score [26]: 0
Overall Clinical Score (Day 12, CIA + Compound A 3 mg/kg, 3 mg/kg): 0
